# Legend:
# [1] = target: T1, mouse Siglec-2-Fc-Avi (CD22) (Mus musculus, UniProt P35329); test: SPR binding affinity to mouse CD22; settings: steady-state analysis
# T1 construct: made in house
# T1 sequence (P35329 22-708 limits assumed): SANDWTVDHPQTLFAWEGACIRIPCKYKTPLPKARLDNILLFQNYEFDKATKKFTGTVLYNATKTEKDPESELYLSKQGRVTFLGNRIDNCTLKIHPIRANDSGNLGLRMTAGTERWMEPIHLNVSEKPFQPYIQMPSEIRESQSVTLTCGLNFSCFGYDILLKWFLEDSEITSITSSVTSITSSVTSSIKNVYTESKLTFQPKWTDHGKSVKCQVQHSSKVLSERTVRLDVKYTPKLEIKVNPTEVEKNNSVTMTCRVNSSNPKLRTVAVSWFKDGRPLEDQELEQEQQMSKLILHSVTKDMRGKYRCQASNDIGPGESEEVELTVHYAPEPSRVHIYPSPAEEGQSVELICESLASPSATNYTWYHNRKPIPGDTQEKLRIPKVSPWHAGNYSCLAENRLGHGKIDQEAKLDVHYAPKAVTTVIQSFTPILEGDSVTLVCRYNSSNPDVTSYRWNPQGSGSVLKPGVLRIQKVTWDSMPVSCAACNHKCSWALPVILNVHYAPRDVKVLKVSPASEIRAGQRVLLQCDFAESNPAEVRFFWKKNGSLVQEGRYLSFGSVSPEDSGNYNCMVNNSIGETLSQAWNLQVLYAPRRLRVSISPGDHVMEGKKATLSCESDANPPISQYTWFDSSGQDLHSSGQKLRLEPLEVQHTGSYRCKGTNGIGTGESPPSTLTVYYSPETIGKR
# How it was run: (§1)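 Native sialic acid residues are removed from the receptor enzymatically (4 hours at 37° C.) prior to streptavidin capture of the biotinylated protein. Ligand compounds then flow over in HEPES-buffered saline, pH 7.5, containing 0.05% Tween-20 and 1% DMSO, and binding is evaluated at steady state.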
# [2] = target: T2, human Siglec-2/CD22 protein (Homo sapiens, UniProt P20273); test: SPR binding affinity to human CD22; settings: steady-state analysis
# T2 construct: purchased Acro Biosystems SI2-H82E3
# T2 sequence (P20273 20-847): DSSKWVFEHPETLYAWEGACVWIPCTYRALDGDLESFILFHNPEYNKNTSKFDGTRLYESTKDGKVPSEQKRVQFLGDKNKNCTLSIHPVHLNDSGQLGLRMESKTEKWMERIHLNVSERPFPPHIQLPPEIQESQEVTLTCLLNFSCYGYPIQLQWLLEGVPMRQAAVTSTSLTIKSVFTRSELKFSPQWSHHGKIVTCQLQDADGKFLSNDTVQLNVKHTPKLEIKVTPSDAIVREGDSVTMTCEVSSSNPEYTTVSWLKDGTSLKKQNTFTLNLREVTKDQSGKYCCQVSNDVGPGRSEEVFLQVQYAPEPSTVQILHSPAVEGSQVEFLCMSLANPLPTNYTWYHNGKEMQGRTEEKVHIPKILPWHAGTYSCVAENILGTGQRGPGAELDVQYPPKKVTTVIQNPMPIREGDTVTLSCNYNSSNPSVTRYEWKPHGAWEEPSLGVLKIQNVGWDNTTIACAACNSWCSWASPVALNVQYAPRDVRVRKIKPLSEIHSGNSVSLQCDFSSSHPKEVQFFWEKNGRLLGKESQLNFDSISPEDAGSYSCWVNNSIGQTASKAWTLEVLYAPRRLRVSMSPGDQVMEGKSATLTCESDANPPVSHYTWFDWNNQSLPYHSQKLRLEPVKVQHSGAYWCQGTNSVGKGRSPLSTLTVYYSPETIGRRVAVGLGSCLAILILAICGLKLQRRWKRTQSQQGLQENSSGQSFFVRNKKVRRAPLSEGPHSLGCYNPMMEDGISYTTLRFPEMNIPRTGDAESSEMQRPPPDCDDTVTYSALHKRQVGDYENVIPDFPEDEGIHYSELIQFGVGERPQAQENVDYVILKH
# How it was run: as §1
# cynomolgus Siglec-2/CD22 = cynomolgus Siglec-2/CD22 (Macaca fascicularis, UniProt A0A2K5WCZ6); test: biochemical; type: binding; settings: SPR, steady-state analysis; read-out: Affinity cyno CD22
# Chain of cynomolgus Siglec-2/CD22 (A0A2K5WCZ6 entry or part of it): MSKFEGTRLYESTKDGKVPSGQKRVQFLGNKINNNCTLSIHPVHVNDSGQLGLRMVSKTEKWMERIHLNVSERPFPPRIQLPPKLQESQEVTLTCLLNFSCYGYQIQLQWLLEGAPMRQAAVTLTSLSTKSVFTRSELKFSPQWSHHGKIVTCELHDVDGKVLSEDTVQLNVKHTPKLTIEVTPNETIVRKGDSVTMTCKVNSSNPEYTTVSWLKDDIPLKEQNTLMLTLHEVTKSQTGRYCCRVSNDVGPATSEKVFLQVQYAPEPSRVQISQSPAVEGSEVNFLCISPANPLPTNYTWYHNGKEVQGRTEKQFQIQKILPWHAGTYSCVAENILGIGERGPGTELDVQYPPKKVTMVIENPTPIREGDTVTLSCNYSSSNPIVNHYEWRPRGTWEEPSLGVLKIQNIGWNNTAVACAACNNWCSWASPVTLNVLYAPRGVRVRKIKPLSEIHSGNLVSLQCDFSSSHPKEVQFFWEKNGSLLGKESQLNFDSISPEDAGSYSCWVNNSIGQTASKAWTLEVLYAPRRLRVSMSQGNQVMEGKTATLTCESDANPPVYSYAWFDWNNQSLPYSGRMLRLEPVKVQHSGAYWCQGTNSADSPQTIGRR
# How it was run: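 Compound binding measured by steady-state SPR analysis, 120 s dissociation, in HEPES-NaCl-Tween buffer pH 7.5 containing 1% DMSO, DMSO solvent-corrected. Surface: cyno CD22, sialic acids first stripped by SialoExo for 4 h at 37° C., then amine-coupled onto CM5.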
Compound,Kd [1],Kd [2],Kd (cynomolgus Siglec-2/CD22)
"C#CCCOc1ccc(CO[C@]2(C(=O)O)C[C@H](O)[C@@H](N)[C@H]([C@H](O)[C@H](O)CNC(=O)Cc3ccc(-c4ccc(O)cc4)cc3)O2)cc1 [Compound 55, (2R,4S,5R,6R)-5-amino-2-((4-(but-3-yn-1-yloxy)benzyl)oxy)-6-((1R,2R)-1,2-dihydroxy-3-(2-(4′-hydroxy-[1,1′-biphenyl]-4-yl)acetamido)propyl)-4-hydroxytetrahydro-2H-pyran-2-carboxylic acid]",< 1000 nM,1000 to 10000 nM,1000 to 10000 nM
"CC(=O)NCCOCCOCCOCCOCCn1cc(CCCCCCO[C@]2(C(=O)O)C[C@H](O)[C@@H](NC(C)=O)[C@H]([C@H](O)[C@H](O)CNC(=O)c3cccc(Cl)c3)O2)nn1 [Compound 272, (2R,4S,5R,6R)-5-acetamido-6-((1R,2R)-3-(3-chlorobenzamido)-1,2-dihydroxypropyl)-4-hydroxy-2-((6-(1-(2-oxo-6,9,12,15-tetraoxa-3-azaheptadecan-17-yl)-1H-1,2,3-triazol-4-yl)hexyl)oxy)tetrahydro-2H-pyran-2-carboxylic acid]",> 10000 nM,1000 to 10000 nM,1000 to 10000 nM
"C#CCOCCOCCO[C@]1(C(=O)O)C[C@H](O)[C@@H](NC(=O)CO)[C@H]([C@H](O)[C@H](O)CNC(=O)Cc2ccc(-c3cccc(C#N)c3)cc2)O1 [Compound 81, (2R,4S,5R,6R)-6-((1R,2R)-3-(2-(3′-cyano-[1,1′-biphenyl]-4-yl)acetamido)-1,2-dihydroxypropyl)-4-hydroxy-5-(2-hydroxyacetamido)-2-(2-(2-(prop-2-yn-1-yloxy)ethoxy)ethoxy)tetrahydro-2H-pyran-2-carboxylic acid]",> 10000 nM,1000 to 10000 nM,1000 to 10000 nM
"C#CCCOc1ccc(CS[C@]2(C(=O)O)C[C@H](O)[C@@H](NC(=O)CO)[C@H]([C@H](O)[C@H](O)CNC(=O)Cc3ccc(Cl)c(O)c3)O2)cc1 [Compound 131, (2S,4S,5R,6R)-2-((4-(but-3-yn-1-yloxy)benzyl)thio)-6-((1R,2R)-3-(2-(4-chloro-3-hydroxyphenyl)acetamido)-1,2-dihydroxypropyl)-4-hydroxy-5-(2-hydroxyacetamido)tetrahydro-2H-pyran-2-carboxylic acid]",< 1000 nM,< 1000 nM,< 1000 nM
"C#CCOc1ccc(CO[C@]2(C(=O)O)C[C@H](O)[C@@H](NC(=O)CO)[C@H]([C@H](O)[C@H](O)CNC(=O)Cc3ccccc3F)O2)cc1 [Compound 165, (2R,4S,5R,6R)-6-((1R,2R)-3-(2-(2-fluorophenyl)acetamido)-1,2-dihydroxypropyl)-4-hydroxy-5-(2-hydroxyacetamido)-2-((4-(prop-2-yn-1-yloxy)benzyl)oxy)tetrahydro-2H-pyran-2-carboxylic acid]",1000 to 10000 nM,< 1000 nM,1000 to 10000 nM
"C#CCOCCOCCO[C@]1(C(=O)O)C[C@H](O)[C@@H](NC(=O)CO)[C@H]([C@H](O)[C@H](O)CNC(=O)c2ccc(O)cc2)O1 [Compound 198, (2R,4S,5R,6R)-6-((1R,2R)-1,2-dihydroxy-3-(4-hydroxybenzamido)propyl)-4-hydroxy-5-(2-hydroxyacetamido)-2-(2-(2-(prop-2-yn-1-yloxy)ethoxy)ethoxy)tetrahydro-2H-pyran-2-carboxylic acid]",> 10000 nM,> 10000 nM,> 10000 nM
"C#CCOc1ccc(CO[C@]2(C(=O)O)C[C@H](O)[C@@H](NC(=O)CO)[C@H]([C@H](O)[C@H](O)CNC(=O)Cc3cccc(O)c3)O2)cc1 [Compound 150, (2R,4S,5R,6R)-6-((1R,2R)-1,2-dihydroxy-3-(2-(3-hydroxyphenyl)acetamido)propyl)-4-hydroxy-5-(2-hydroxyacetamido)-2-((4-(prop-2-yn-1-yloxy)benzyl)oxy)tetrahydro-2H-pyran-2-carboxylic acid]",1000 to 10000 nM,< 1000 nM,1000 to 10000 nM

# The next lines start with the values.
Kd [1],Kd [2],Kd (cynomolgus Siglec-2/CD22),Compound
< 1000 nM,< 1000 nM,< 1000 nM,"C#CCOCCCCCCO[C@]1(C(=O)O)C[C@H](O)[C@@H](NC(=O)CO)[C@H]([C@H](O)[C@H](O)CNC(=O)Cc2ccc(-c3nnn[nH]3)cc2)O1 [Compound 176, (2R,4S,5R,6R)-6-((1R,2R)-3-(2-(4-(1H-tetrazol-5-yl)phenyl)acetamido)-1,2-dihydroxypropyl)-4-hydroxy-5-(2-hydroxyacetamido)-2-((6-(prop-2-yn-1-yloxy)hexyl)oxy)tetrahydro-2H-pyran-2-carboxylic acid]"
< 1000 nM,< 1000 nM,< 1000 nM,"O=C(O)CCCCCCCO[C@]1(C(=O)O)C[C@H](O)[C@@H](NC(=O)CO)[C@H]([C@H](O)[C@H](O)CNC(=O)Cc2ccc(Cl)cc2)O1 [Compound 97, (2R,4S,5R,6R)-2-((7-carboxyheptyl)oxy)-6-((1R,2R)-3-(2-(4-chlorophenyl)acetamido)-1,2-dihydroxypropyl)-4-hydroxy-5-(2-hydroxyacetamido)tetrahydro-2H-pyran-2-carboxylic acid]"
< 1000 nM,1000 to 10000 nM,1000 to 10000 nM,"C#CCOCCOCCO[C@]1(C(=O)O)C[C@H](O)[C@@H](NC(=O)CO)[C@H]([C@H](O)[C@H](O)CNC(=O)Cc2ccc(O)cc2)O1 [Compound 153, (2R,4S,5R,6R)-6-((1R,2R)-1,2-dihydroxy-3-(2-(4-hydroxyphenyl)acetamido)propyl)-4-hydroxy-5-(2-hydroxyacetamido)-2-(2-(2-(prop-2-yn-1-yloxy)ethoxy)ethoxy)tetrahydro-2H-pyran-2-carboxylic acid]"
1000 to 10000 nM,1000 to 10000 nM,1000 to 10000 nM,"C#CCOCCCCCCO[C@]1(C(=O)O)C[C@H](O)[C@@H](NCC(N)=O)[C@H]([C@H](O)[C@H](O)CNC(=O)Cc2ccc(Cl)cc2)O1 [Compound 182, (2R,4S,5R,6R)-5-((2-amino-2-oxoethyl)amino)-6-((1R,2R)-3-(2-(4-chlorophenyl)acetamido)-1,2-dihydroxypropyl)-4-hydroxy-2-((6-(prop-2-yn-1-yloxy)hexyl)oxy)tetrahydro-2H-pyran-2-carboxylic acid]"
< 1000 nM,< 1000 nM,< 1000 nM,"C#CCOCCNc1c(NCCCCCCO[C@]2(C(=O)O)C[C@H](O)[C@@H](NC(=O)CO)[C@H]([C@H](O)[C@H](O)CNC(=O)Cc3ccc(C(F)F)cc3)O2)c(=O)c1=O [Compound 216, (2R,4S,5R,6R)-6-((1R,2R)-3-(2-(4-(difluoromethyl)phenyl)acetamido)-1,2-dihydroxypropyl)-2-((6-((3,4-dioxo-2-((2-(prop-2-yn-1-yloxy)ethyl)amino)cyclobut-1-en-1-yl)amino)hexyl)oxy)-4-hydroxy-5-(2-hydroxyacetamido)tetrahydro-2H-pyran-2-carboxylic acid]"
> 10000 nM,1000 to 10000 nM,1000 to 10000 nM,"O=C(O)CCCO[C@]1(C(=O)O)C[C@H](O)[C@@H](NC(=O)CO)[C@H]([C@H](O)[C@H](O)CNC(=O)Cc2ccc(Cl)cc2)O1 [Compound 118, (2R,4S,5R,6R)-2-(3-carboxypropoxy)-6-((1R,2R)-3-(2-(4-chlorophenyl)acetamido)-1,2-dihydroxypropyl)-4-hydroxy-5-(2-hydroxyacetamido)tetrahydro-2H-pyran-2-carboxylic acid]"

# From patent US20250064941A1, “SIGLEC LIGANDS, CONJUGATES, AND METHODS OF USE THEREOF” (Osprey Biopharmaceuticals, Inc., priority 2023, published 2025)
